According to US4952393A, “Organ infarct imaging with technetium labelled glucarate” (The General Hospital Corporation, priority 1988, dated 1990):
Read-outs that look alike come from different tables or passages of the source.

How the values were obtained:
cerebral infarct = test: Detection of cerebral infarct in the rat (gamma imaging, localization ratio); format: in vivo, Sprague-Dawley CD rats; conditions: for DDC activity (mean +/- SD), ratio infarct:normal brain: 0.6 mCi, perfusion deficit marker; for Tc-99m-glucarate activity (mean +/- SD), ratio stroke regions to normal cerebral regions: i.v., 1.5-2.0 mCi
Experimental: Tc-99m-glucarate was used to visualize cerebral infarct regions in the rat brain.
Experimental cerebral infarcts were created in 28 Sprague-Dawley CD rats (Charles River Laboratories) by injection of thrombin-generated thrombi into an isolated carotid artery. […] Imaging was performed 1.5-2.0 hours later utilizing a gamma camera having a 3 mm diameter pin hole collimator. […] The gamma images obtained were analyzed by computer planimetry. Ratios of count densities in infarct regions and normal brain regions were calculated.

[1] = room temperature, 1 hr
Experimental: Monopotassium glucarate (25 mg) was dissolved in 0.2M bicarbonate (1.0 ml) at pH 8.0. To 500 ul of glucarate solution, 40 ul of stannous chloride (2.5 mg/ml) in 0.1M acetic acid was added, followed by 500 ul of ^99m Tc generator eluate (60 mCi). The resulting solution was allowed to stand for 5 minutes at room temperature, and then analyzed for radiochemical purity by paper chromatography (Whatman 3MM, 60% CH3 CN:40% H2 O)
^99m Tc-glucarate was prepared as described in Example 1 using different concentrations of potassium glucarate (0.09-12.25 mg/ml). The products were analyzed by paper chromatography (Whatman 3MM, 60% CH3 CN:40%H2 O; ^99m TcO4 ^-Rf= 1.0, ^99m Tc-glucarate,Rf=0.4; ^99m TcO2 ×H2 O, Rf=0).

acute myocardial infarct = test: Detection of myocardial infarct in the dog (gamma camera imaging); conditions: for visualization of area of acute myocardial necrosis / blood pool activity: 80 minutes after injection; for visualization of area of acute myocardial necrosis: 10 mCi
Experimental: Mongrel dogs (n=3) were anesthetized with intravenous pentobartitol (30 mg/kg), and respiration maintained on a Harvard respirator. Left thoractomy was performed, the heart suspended in a pericardial cradle and a segment of the left anterior descending coronary artery (LAD) approximately two thirds the distance from the apex to the base was dissected free. The LAD was then occluded with a silk ligature. After three hours of LAD occlusion, the occlusive ligature was removed and reperfusion was established. At 15 minutes of reperfusion, 200 uCi of indium labeled R11D10 Fab-DTPA (Centocor, Inc.) was injected, and 30 seconds later, 10 mCi of technetium labeled glucarate was injected. Serial imaging with a gamma camera was initiated immediately upon tracer administration.
After 5 hours of in vivo imaging sessions, the dogs were sacrificed by pentobarbital overdose. Then, the cardiac tissue was stained with an intravenous triphenyltetrazolium chloride infusion. The heart was excised, washed with cold water, and imaged as a whole excised heart; and also as heart slices cut parallel to the atrioventricular groove in four slices after overnight storage at 4° C. Each slice was then divided into eight equal pieces and each piece subdivided into epicardial and endocardial samples, weighed and then counted in a gamma well counter (LKB Compu Gamma counter) for distribution of the various radioisotopes. […] Blood samples from the contralateral vein were obtained at 1, 2, 3, 4, 5, 10, 15, 20, 30, 45, 60, and 75 minutes. […] At the time of sacrifice, tissue samples from the liver, lungs, kidneys, spleen, and skeletal muscles were also obtained.

[2] = Biodistribution of 99mTc-glucarate in various organs in Balb/c mice; format: in vivo; conditions: i.v., 100 uCi
Experimental: Biodistribution studies were carried out in Balb/c mice. The mice (3 mice per group) were injected intravenously with 100 uCi of technetium-labeled D-glucarate. […]

[3] = preparation made from 12 mg/ml glucarate
Experimental: Samples of ^99m -Tc-glucarate prepared as described in Example 1 from 6 and 12 mg/ml potassium glucarate were analyzed over a period of 7 hours.

myocardial infarct = conditions: Rossman et al., J. Nucl. Med. 16: 980-985 (1975); cited from earlier work
[4] = dog, listed as 99m Tc-glucarate

T1-201 diethyldithiocarbamate [DDC, reference compound]
DDC activity (mean +/- SD), ratio infarct:normal brain (cerebral infarct; 1 hour after infarct, rats): 0.3 +/- 0.1
DDC activity (mean +/- SD), ratio infarct:normal brain (cerebral infarct; 3 hours after infarct, rats): 0.3 +/- 0.3
DDC activity (mean +/- SD), ratio infarct:normal brain (cerebral infarct; 5 hours after infarct, rats): 0.4 +/- 0.2
DDC activity (mean +/- SD), ratio infarct:normal brain (cerebral infarct; 24 hours after infarct, rats): 0.3 +/- 0.2

Tc-99m-glucarate
effect of duration of cerebral injury on localization (cerebral infarct; 1, 3, 5 and 24 hours, rats): did not appear to affect localization
diffusion across the blood-brain barrier (cerebral infarct; imaging in the brain): can diffuse across the blood-brain barrier
Tc-99m-glucarate activity (mean +/- SD), ratio stroke regions to normal cerebral regions (cerebral infarct; injection 1 hour after infarct, rats): 2.98 +/- 0.7
Tc-99m-glucarate activity (mean +/- SD), ratio stroke regions to normal cerebral regions (cerebral infarct; injection 3 hours after infarct, rats): 4.1 +/- 1.7
Tc-99m-glucarate activity (mean +/- SD), ratio stroke regions to normal cerebral regions (cerebral infarct; injection 5 hours after infarct, rats): 4.1 +/- 2.4
Tc-99m-glucarate activity (mean +/- SD), ratio stroke regions to normal cerebral regions (cerebral infarct; injection 24 hours after infarct, rats): 4.8 +/- 1.9
accumulation in stroke compared with 99mTc-glucoheptonate (cerebral infarct; rats): more rapid and intense
ratios of activity in stroke regions to normal cerebral regions, in words (cerebral infarct; rats): maximal in all stroke animals
time to cerebral infarct image (cerebral infarct; rats): one
visualization of cerebral infarct regions by gamma scintigraphy (cerebral infarct; rats): All cerebral infarct regions were visualized
% 99mTc-Glucarate ([1]; 0.09 mg/ml glucaric acid): 43.0%
% 99mTcO2 ([1]; 0.09 mg/ml glucaric acid): 57.0%
% 99mTc-Glucarate ([1]; 0.19 mg/ml glucaric acid): 59.0%
% 99mTcO2 ([1]; 0.19 mg/ml glucaric acid): 41.0%
% 99mTc-Glucarate ([1]; 0.38 mg/ml glucaric acid): 70.0%
% 99mTcO2 ([1]; 0.38 mg/ml glucaric acid): 30.0%
% 99mTc-Glucarate ([1]; 0.76 mg/ml glucaric acid): 75.6%
% 99mTcO2 ([1]; 0.76 mg/ml glucaric acid): 24.4%
% 99mTc-Glucarate ([1]; 1.53 mg/ml glucaric acid): 80.5%
% 99mTcO2 ([1]; 1.53 mg/ml glucaric acid): 19.5%
% 99mTc-Glucarate ([1]; 3.06 mg/ml glucaric acid): 88.5%
% 99mTcO2 ([1]; 3.06 mg/ml glucaric acid): 11.5%
% 99mTc-Glucarate ([1]; 6.12 mg/ml glucaric acid): 100.0%
% 99mTcO2 ([1]; 6.12 mg/ml glucaric acid): .0%
% 99mTc-Glucarate ([1]; 12.25 mg/ml glucaric acid): 100.0%
% 99mTcO2 ([1]; 12.25 mg/ml glucaric acid): .0%
visualization of area of acute myocardial necrosis (acute myocardial infarct; dog): clearly visible
visualization of area of acute myocardial necrosis (acute myocardial infarct; [4]): clearly visualized
blood pool activity (acute myocardial infarct; dog): minimum blood activity
blood pool activity (acute myocardial infarct; [4]): minimum blood pool activity
time to avid myocardial infarct image (acute myocardial infarct; dogs): one and a half
uptake in area of myocardial infarction of the heart slices (acute myocardial infarct; excised heart slices, dog): Distinct uptake
Biodistribution, Blood ([2]; 1 hour): 1.72 ± 0.43 % Injected Dose Per Gram
Biodistribution, Heart ([2]; 1 hour): 0.63 ± 1.10 % Injected Dose Per Gram
Biodistribution, Intestine ([2]; 1 hour): 2.90 ± 1.12 % Injected Dose Per Gram
Biodistribution, Kidneys ([2]; 1 hour): 24.3 ± 4.15 % Injected Dose Per Gram
Biodistribution, Liver ([2]; 1 hour): 1.54 ± 0.51 % Injected Dose Per Gram
Biodistribution, Lungs ([2]; 1 hour): 3.90 ± 1.80 % Injected Dose Per Gram
Biodistribution, Muscle ([2]; 1 hour): 0.32 ± 0.20 % Injected Dose Per Gram
Biodistribution, Spleen ([2]; 1 hour): 0.44 ± 0.76 % Injected Dose Per Gram
Biodistribution, Stomach ([2]; 1 hour): 0.935 % Injected Dose Per Gram
Biodistribution, Blood ([2]; 4 hours): 1.26 ± 0.22 % Injected Dose Per Gram
Biodistribution, Heart ([2]; 4 hours): 0.75 ± 1.30 % Injected Dose Per Gram
Biodistribution, Intestine ([2]; 4 hours): 2.02 ± 0.90 % Injected Dose Per Gram
Biodistribution, Kidneys ([2]; 4 hours): 28.50 ± 0.75 % Injected Dose Per Gram
Biodistribution, Liver ([2]; 4 hours): 1.49 ± 0.08 % Injected Dose Per Gram
Biodistribution, Lungs ([2]; 4 hours): 3.43 ± 1.35 % Injected Dose Per Gram
Biodistribution, Muscle ([2]; 4 hours): 2.31 ± 2.98 % Injected Dose Per Gram
Biodistribution, Stomach ([2]; 4 hours): 3.49 ± 5.10 % Injected Dose Per Gram
Biodistribution, Blood ([2]; 8 hours): 0.90 ± 0.29 % Injected Dose Per Gram
Biodistribution, Heart ([2]; 8 hours): 0.30 ± 0.52 % Injected Dose Per Gram
Biodistribution, Intestine ([2]; 8 hours): 0.89 ± 0.46 % Injected Dose Per Gram
Biodistribution, Kidneys ([2]; 8 hours): 19.20 ± 5.00 % Injected Dose Per Gram
Biodistribution, Liver ([2]; 8 hours): 1.03 ± 0.18 % Injected Dose Per Gram
Biodistribution, Lungs ([2]; 8 hours): 1.95 ± 1.04 % Injected Dose Per Gram
Biodistribution, Muscle ([2]; 8 hours): 0.59 ± 0.82 % Injected Dose Per Gram
Biodistribution, Stomach ([2]; 8 hours): 1.13 ± 0.98 % Injected Dose Per Gram
Biodistribution, Blood ([2]; 24 hours): 0.56 ± 0.09 % Injected Dose Per Gram
Biodistribution, Intestine ([2]; 24 hours): 0.58 ± 0.36 % Injected Dose Per Gram
Biodistribution, Kidneys ([2]; 24 hours): 8.4 ± 1.74 % Injected Dose Per Gram
Biodistribution, Liver ([2]; 24 hours): 0.42 ± 0.05 % Injected Dose Per Gram
Biodistribution, Lungs ([2]; 24 hours): 1.52 ± 1.02 % Injected Dose Per Gram
Biodistribution, Muscle ([2]; 24 hours): 0.68 ± 1.00 % Injected Dose Per Gram
Biodistribution, Stomach ([2]; 24 hours): 0.39 ± 0.34 % Injected Dose Per Gram
stable for a period of [3]: about 2 hours

^99m Tc-D-glucoheptonate
success as an imaging agent for myocardial infarct (myocardial infarct): less successful
